Test results from patent publication US9540389B2, “Antimicrobial potentiators” (priority 2013, dated 2017).
≈ marks a conversion by molar mass, not a printed value.

Columns and labels:
[1] = biological target: AcrAB-TolC efflux pump (Escherichia coli, UniProt P31224); assay: H33342 accumulation assay; format: cell-based, Escherichia coli 287; set-up: endogenous in cells; host or cells: E. coli strains 285 and 287 (ciprofloxacin-resistant mutants of AB1157); conditions: hyper-efflux strain 287
[2] = test system: E. coli AB1157; assay: Time-kill assay (CIP and/or EPI); format: cell-based, Escherichia coli
Experimental: (§1) Panel (C): Bactericidal activity of CIP alone, 25 μM MBX2319 alone, or 25 μM MBX2319 combined with a bacteriostatic concentration of CIP against E. coli AB1157 and isogenic efflux defective mutants after 2 hours exposure. […] Panel (D): Bactericidal activity of CIP alone, 25 μM MBX2319 alone, 25 μM PAβN alone, and a bacteriostatic concentration of CIP combined with 25 μM MBX2319 or combined with 25 μM PAβN against the following organisms: a) E. coli AB1157, b) E. coli ATCC 25922, c) K. pneumoniae ATCC 700603, d) S. flexneri ATCC 12022, e) S. enterica ATCC 14028, f) E. aerogenes ATCC 13048.
(§2) • Strains and Reagents. The following strains were obtained from the Keio collection (Baba, et al.: Construction of Escherichia coli K-12 in-frame, single-gene knockout mutants: the Keio collection. In Mol Syst Biol, vol. 2, pp. 2006 0008, (2006)): JW0451 (ΔacrB::kan), JW5503 (ΔtolC::kan), JW3234 (ΔacrF::kan), JW2661 (ΔemrB::kan), JW0863 (ΔmacB::kan). The deletion mutations in each of these strains were transferred to AB1157 using P1 phage transduction (see Table 1). The construction of the E. coli cell-based reporter strain (SOS-XXX) that was used for high throughput screening is described in detail in the supplementary information. […] Irgasan was a generous gift from Ciba Speciality Chemicals, Inc. (High Point, N.C.). Hoechst 33342 (H33342) was purchased from Molecular Probes (Eugene, Oreg.). […] Luria Broth (Miller) and agar were purchased as prepared dehydrated media from Becton Dickenson (Franklin Lakes, N.J.). The compound libraries used in high-throughput screens were purchased from Chembridge (San Diego, Calif.), ChemDiv (San Diego, Calif.), and TimTec (Newark, Del.). MBX2319 was synthesized by Microbiotix, Inc. • Antibacterial Activity Assays. The minimal inhibitory concentration (MIC) of antibacterial agents and biocides were determined using the microbroth dilution method essentially as described in the CLSI protocol M7-A7 (CLSI: Method for dilution antimicrobial susceptibility testing for bacteria that grow aerobically; Approved standard-document M7-A7. In Clinical and Laboratory Standards Institute document M7-A7, Clinical and Laboratory Standards Institute, Wayne, Pa., (2006)), with the following exceptions. LB media was used instead of MHB. […] The final concentration of DMSO in each assay was 2%. […] MIC assays were performed in triplicate and the geometric mean was calculated. […] Viability was monitored over 2-4 hours by making serial dilutions in saline and spotting 5 μl of each dilution onto the surface of an LB agar plate in triplicate. Colonies were counted after the plates were incubated at 37° C. for 16-18 hr, colony forming units (CFU) per ml were calculated, and the average and standard deviation for the three replicates was determined. […]

[3] = test system: E. coli AB1157 ΔacrF; assay: Time-kill assay (CIP and/or EPI); format: cell-based, Escherichia coli; conditions: 25 μM MBX2319 + 1×MIC CIP, 2 hours
Experimental: as §1, §2

[4] = Solubility in phosphate buffers; format: physicochemical; conditions: phosphate buffer, aqueous buffer, read-out: solubility limit
[5] = test system: S. enterica ATCC 14028; assay: Time-kill assay (CIP and/or EPI); format: cell-based; conditions: Salmonella enterica; 25 μM EPI + CIP 0.5 or 1×MIC
Experimental: as §1
(§3) • Strains and Reagents. The following strains were obtained from the Keio collection (Baba, et al.: Construction of Escherichia coli K-12 in-frame, single-gene knockout mutants: the Keio collection. In Mol Syst Biol, vol. 2, pp. 2006 0008, (2006)): JW0451 (ΔacrB::kan), JW5503 (ΔtolC::kan), JW3234 (ΔacrF::kan), JW2661 (ΔemrB::kan), JW0863 (ΔmacB::kan). The deletion mutations in each of these strains were transferred to AB1157 using P1 phage transduction (see Table 1). […] The minimal inhibitory concentration (MIC) of antibacterial agents and biocides were determined using the microbroth dilution method essentially as described in the CLSI protocol M7-A7 (CLSI: Method for dilution antimicrobial susceptibility testing for bacteria that grow aerobically; Approved standard-document M7-A7. In Clinical and Laboratory Standards Institute document M7-A7, Clinical and Laboratory Standards Institute, Wayne, Pa., (2006)), with the following exceptions. […] MIC assays were performed in triplicate and the geometric mean was calculated. […] Viability was monitored over 2-4 hours by making serial dilutions in saline and spotting 5 μl of each dilution onto the surface of an LB agar plate in triplicate. Colonies were counted after the plates were incubated at 37° C. for 16-18 hr, colony forming units (CFU) per ml were calculated, and the average and standard deviation for the three replicates was determined. […]

[6] = test system: E. aerogenes ATCC 13048; assay: Time-kill assay (CIP and/or EPI); format: cell-based; conditions: Enterobacter aerogenes; 25 μM EPI + CIP 0.5 or 1×MIC
Experimental: as §1, §3

[7] = test system: K. pneumoniae ATCC 700603; assay: Time-kill assay (CIP and/or EPI); format: cell-based; conditions: Klebsiella pneumoniae; 25 μM EPI + CIP 0.5 or 1×MIC
Experimental: as §1, §3

Sequence of AcrAB-TolC efflux pump (P02930 23-493): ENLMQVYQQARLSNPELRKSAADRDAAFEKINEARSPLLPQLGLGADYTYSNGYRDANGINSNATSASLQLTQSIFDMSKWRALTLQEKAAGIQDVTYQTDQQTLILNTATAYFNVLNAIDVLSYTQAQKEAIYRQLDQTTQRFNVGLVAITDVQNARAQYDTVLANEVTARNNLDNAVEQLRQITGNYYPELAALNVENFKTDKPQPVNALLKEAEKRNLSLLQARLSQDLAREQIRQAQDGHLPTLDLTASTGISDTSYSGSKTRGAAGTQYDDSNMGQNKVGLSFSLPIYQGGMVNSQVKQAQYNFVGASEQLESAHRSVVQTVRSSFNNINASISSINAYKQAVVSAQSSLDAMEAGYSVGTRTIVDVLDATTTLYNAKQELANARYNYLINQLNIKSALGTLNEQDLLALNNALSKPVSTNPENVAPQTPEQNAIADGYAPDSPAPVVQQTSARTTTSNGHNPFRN
Sequence of AcrAB-TolC efflux pump (P0AE06 25-397, further chain): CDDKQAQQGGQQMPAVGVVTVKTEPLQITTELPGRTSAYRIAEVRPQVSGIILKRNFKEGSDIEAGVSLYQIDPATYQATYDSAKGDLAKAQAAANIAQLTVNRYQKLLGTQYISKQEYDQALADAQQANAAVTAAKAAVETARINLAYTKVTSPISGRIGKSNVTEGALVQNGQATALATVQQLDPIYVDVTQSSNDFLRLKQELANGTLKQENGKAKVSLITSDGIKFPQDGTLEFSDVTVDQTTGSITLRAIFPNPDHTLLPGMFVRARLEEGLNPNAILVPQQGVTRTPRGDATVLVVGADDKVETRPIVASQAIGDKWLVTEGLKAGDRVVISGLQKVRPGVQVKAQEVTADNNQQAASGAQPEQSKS
Sequence of AcrAB-TolC efflux pump (P31224 whole entry): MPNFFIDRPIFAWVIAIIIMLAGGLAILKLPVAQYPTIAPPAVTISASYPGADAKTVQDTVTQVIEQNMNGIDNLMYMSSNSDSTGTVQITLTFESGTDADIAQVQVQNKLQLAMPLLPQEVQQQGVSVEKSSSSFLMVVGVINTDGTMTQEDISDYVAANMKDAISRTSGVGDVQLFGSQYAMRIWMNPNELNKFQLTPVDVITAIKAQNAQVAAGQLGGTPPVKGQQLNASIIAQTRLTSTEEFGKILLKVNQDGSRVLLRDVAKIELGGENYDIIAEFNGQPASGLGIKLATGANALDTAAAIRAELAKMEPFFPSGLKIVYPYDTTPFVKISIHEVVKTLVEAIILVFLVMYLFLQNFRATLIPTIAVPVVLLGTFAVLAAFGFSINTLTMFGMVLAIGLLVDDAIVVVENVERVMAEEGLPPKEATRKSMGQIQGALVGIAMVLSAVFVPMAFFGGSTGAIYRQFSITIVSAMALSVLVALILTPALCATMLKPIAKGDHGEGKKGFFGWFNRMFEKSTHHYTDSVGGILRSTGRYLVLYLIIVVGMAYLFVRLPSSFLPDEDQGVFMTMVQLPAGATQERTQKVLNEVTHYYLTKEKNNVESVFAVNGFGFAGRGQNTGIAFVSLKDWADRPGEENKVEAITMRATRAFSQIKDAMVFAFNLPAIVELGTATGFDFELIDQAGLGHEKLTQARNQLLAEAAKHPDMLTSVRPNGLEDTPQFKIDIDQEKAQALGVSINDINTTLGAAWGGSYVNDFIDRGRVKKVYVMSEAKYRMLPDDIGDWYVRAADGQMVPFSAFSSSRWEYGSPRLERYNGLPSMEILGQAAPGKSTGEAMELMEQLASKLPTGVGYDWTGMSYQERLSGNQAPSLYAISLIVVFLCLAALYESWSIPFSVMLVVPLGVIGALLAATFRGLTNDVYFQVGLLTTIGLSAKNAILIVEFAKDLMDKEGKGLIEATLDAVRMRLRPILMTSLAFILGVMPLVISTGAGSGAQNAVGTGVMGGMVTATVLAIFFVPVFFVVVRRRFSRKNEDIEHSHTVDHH

CC1(C)Cc2c(C#N)c(SCCc3ccccc3)nc(N3CCOCC3)c2CO1 [MBX2319]
H33342 accumulation [1]: increased H33342 accumulation | decreased viability (CFU/ml) as compared to 1×MIC CIP alone ([2]; 3.13 μM MBX2319 + […] CIP, 4 hr exposure): 10,000 fold | effect on bactericidal activity of […] CIP (1×MIC) ([2]; MBX2319 up to 3.13 μM, dose-dependent, PAβN as high as 100 μM): increased the bactericidal activity | effect on growth, compound alone ([2]; alone at concentrations up to 50 μM): did not affect growth | potentiation of the bactericidal activity of CIP [3]: potentiated the bactericidal activity of CIP | solubility [4]: 15 to 20 µM (≈ 6.14 to 8.19 µg/mL) | decreased viability as compared to CIP alone [5]: 100-1000 fold | decreased viability as compared to CIP alone [6]: 100-1000 fold | decreased viability as compared to CIP alone [7]: 100-1000 fold
